US20250313533A1, “QUINOLINE CARBOXYLIC ACID ESTER COMPOUND AND PREPARATION METHOD AND USE THEREOF” (priority 2019, published 2025)

Assays:
[1] = system: pathogenic bacteria causing bacterial angular leaf spot in cucumbers; test: In vitro bactericidal activity, bacterial angular leaf spot in cucumbers; type: cell-based, pseudomonas; settings: read-out: inhibitory rate; for inhibition at 1 ppm: dosage 1 ppm; for inhibition at 5 ppm: dosage 5 ppm
[2] = system: pathogenic bacteria causing bacterial wilt in tobacco; test: whole plant or invertebrate; type: cell-based, ralstonia; settings: read-out: inhibitory rate
[3] = system: pathogenic bacteria causing black shank in potatoes; test: In vitro bactericidal activity, black shank in potatoes; type: cell-based; settings: read-out: inhibitory rate; for inhibition at 1 ppm: dosage 1 ppm; for inhibition at 5 ppm: dosage 5 ppm
[4] = system: pathogenic bacteria causing stem rot in sweet potatoes; test: In vitro bactericidal activity, stem rot in sweet potatoes; type: cell-based, dikia; settings: read-out: inhibitory rate; for inhibition at 1 ppm: dosage 1 ppm; for inhibition at 5 ppm: dosage 5 ppm
[5] = system: pathogenic bacteria causing bacterial blight in rice; test: whole plant or invertebrate; type: cell-based, xanthomonas; settings: read-out: inhibitory rate
[6] = system: pathogenic bacteria causing fruit blotch in watermelons; test: In vitro bactericidal activity, fruit blotch in watermelons; type: cell-based, acidovorax; settings: read-out: inhibitory rate; for inhibition at 1 ppm: dosage 1 ppm; for inhibition at 5 ppm: dosage 5 ppm
[7] = system: pathogenic bacteria causing black rot in Chinese cabbages; test: In vitro bactericidal activity, black rot in Chinese cabbages; type: cell-based, xanthomonas; settings: Xanthomonas, read-out: inhibitory rate; for inhibition at 1 ppm: dosage 1 ppm; for inhibition at 5 ppm: dosage 5 ppm
[8] = system: pathogenic bacteria causing bacterial wilt in cassava; test: organism not typed; type: cell-based; settings: read-out: inhibitory rate
[9] = system: pathogenic bacteria causing fire blight in pears; test: In vitro bactericidal activity, fire blight in pears; type: cell-based, erwinia; settings: Erwinia, read-out: inhibitory rate; for inhibition at 1 ppm: dosage 1 ppm; for inhibition at 5 ppm: dosage 5 ppm
black shank in potatoes = test: Living crops in vivo protective activity, potatoes (root irrigation); settings: Solanum tuberosum, read-out: efficacy against black shank in potatoes; for pest or weed control at 5 ppm: dosage 5 ppm; for pest or weed control at 10 ppm: dosage 10 ppm
Procedure: Root irrigation was carried out on the potatoes for tests according to the designed concentration of the agents. The dosage for each plant was 200 mL and was kept consistent (also for the control). The black shank bacteria were inoculated on the second day after the application. The results were investigated according to the disease condition.

[10] = system: indoor potted cucumber seedlings; test: Effect of improving growth and development of crops; type: in vivo; set-up: Rate of growth rate increase (%): concentration or dose not given beside the values; settings: versus blank control; for Rate of chlorophyll content increase (%) / Rate of leaf area increase (%): 14 days after application; for Rate of growth rate increase (%): plant height 14 days after application; for Rate of leaf area increase (%): second leaf
Summary of the method: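 Readouts: rate of increase in height growth, leaf area and SPAD chlorophyll content. Measurements were made before compound application and again 14 days afterwards, with leaf area computed from second-leaf dimensions.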

cucumber seedlings = test: Safety for plant growth after application; type: in vivo; settings: dosage 200 ppm
Summary of the method: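 Using pot-grown cucumber seedlings indoors, we recorded plant height growth rate together with chlorophyll content and leaf area following compound application.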

[11] = system: bacterial wilt in tobacco; test: whole plant or invertebrate; settings: Nicotiana tabacum, read-out: efficacy against bacterial wilt in tobacco
[12] = system: stem rot in sweet potatoes; test: whole plant or invertebrate; settings: read-out: efficacy against stem rot in sweet potatoes
bacterial blight in rice = test: whole plant or invertebrate; settings: Oryza sativa, read-out: efficacy against bacterial blight in rice
[13] = system: fruit blotch in watermelons; test: whole plant or invertebrate; settings: read-out: efficacy against fruit blotch in watermelons
[14] = system: soft rot in Chinese cabbages; test: whole plant or invertebrate; settings: 48 h, read-out: efficacy against soft rot in Chinese cabbages

Row | SMILES | inhibition at 1 ppm [1] [%] | inhibition at 5 ppm [1] [%] | inhibition at 1 ppm [2] [%] | inhibition at 5 ppm [2] [%] | inhibition at 1 ppm [3] [%] | inhibition at 5 ppm [3] [%] | inhibition at 1 ppm [4] [%] | inhibition at 5 ppm [4] [%] | inhibition at 1 ppm [5] [%] | inhibition at 5 ppm [5] [%] | inhibition at 1 ppm [6] [%] | inhibition at 5 ppm [6] [%] | inhibition at 1 ppm [7] [%] | inhibition at 5 ppm [7] [%] | inhibition at 1 ppm [8] [%] | inhibition at 5 ppm [8] [%] | inhibition at 1 ppm [9] [%] | inhibition at 5 ppm [9] [%] | pest or weed control at 5 ppm (black shank in potatoes) [%] | pest or weed control at 10 ppm (black shank in potatoes) [%] | also measured
1 | O=C(OCCO)c1cn(C2CC2)c2cc(N3CCOCC3)c(F)cc2c1=O [Compound 425] | ≥ 90 | ≥ 90 | ≥ 90 | ≥ 90 | ≥ 90 | ≥ 90 | ≥ 90 | ≥ 90 | ≥ 90 | ≥ 90 | ≥ 90 | ≥ 90 | ≥ 90 | ≥ 90 | ≥ 90 | ≥ 90 | ≥ 90 | ≥ 90 | ≥ 90 | ≥ 90 | Rate of chlorophyll content increase (%) [10]: 13%; Rate of growth rate increase (%) [10]: 10%; Rate of leaf area increase (%) [10]: 11%; safety for plant growth (discoloration, necrosis, wilt, malformation) (cucumber seedlings): safe for plant growth; pest or weed control at 5 ppm [11]: ≥ 90%; pest or weed control at 10 ppm [11]: ≥ 90%; pest or weed control at 5 ppm [12]: ≥ 90%; pest or weed control at 10 ppm [12]: ≥ 90%; pest or weed control at 5 ppm (bacterial blight in rice): ≥ 90%; pest or weed control at 10 ppm (bacterial blight in rice): ≥ 90%; pest or weed control at 5 ppm [13]: ≥ 90%; pest or weed control at 10 ppm [13]: ≥ 90%; pest or weed control at 5 ppm [14]: ≥ 90%; pest or weed control at 10 ppm [14]: ≥ 90%
2 | COCCOC(=O)c1cn(C2CC2)c2cc(N3CCOCC3)c(F)cc2c1=O [Compound 426, 2-methoxyethyl 1-cyclopropyl-6-fluoro-7-morpholinyl-4-oxo-1,4-dihydroquinoline-3-carboxylate] | ≥ 90 | ≥ 90 | ≥ 90 | ≥ 90 | ≥ 90 | ≥ 90 | ≥ 90 | ≥ 90 | ≥ 90 | ≥ 90 | ≥ 90 | ≥ 90 | ≥ 90 | ≥ 90 | ≥ 90 | ≥ 90 | ≥ 90 | ≥ 90 | ≥ 90 | ≥ 90 | Rate of chlorophyll content increase (%) [10]: 10%; Rate of growth rate increase (%) [10]: 9%; Rate of leaf area increase (%) [10]: 11%; safety for plant growth (discoloration, necrosis, wilt, malformation) (cucumber seedlings): safe for plant growth; pest or weed control at 5 ppm [11]: ≥ 90%; pest or weed control at 10 ppm [11]: ≥ 90%; pest or weed control at 5 ppm [12]: ≥ 90%; pest or weed control at 10 ppm [12]: ≥ 90%; pest or weed control at 5 ppm (bacterial blight in rice): ≥ 90%; pest or weed control at 10 ppm (bacterial blight in rice): ≥ 90%; pest or weed control at 5 ppm [13]: ≥ 90%; pest or weed control at 10 ppm [13]: ≥ 90%; pest or weed control at 5 ppm [14]: ≥ 90%; pest or weed control at 10 ppm [14]: ≥ 90%
3 | O=C(OCCO)c1cn(C2CC2)c2cc(N3CCCCC3)c(F)cc2c1=O [Compound 431] | ≥ 90 | ≥ 90 | ≥ 90 | ≥ 90 | ≥ 90 | ≥ 90 | ≥ 90 | ≥ 90 | ≥ 90 | ≥ 90 | ≥ 90 | ≥ 90 | ≥ 90 | ≥ 90 | ≥ 90 | ≥ 90 | ≥ 90 | ≥ 90 | ≥ 90 | ≥ 90 | Rate of chlorophyll content increase (%) [10]: 15%; Rate of growth rate increase (%) [10]: 12%; Rate of leaf area increase (%) [10]: 11%; safety for plant growth (discoloration, necrosis, wilt, malformation) (cucumber seedlings): safe for plant growth; pest or weed control at 5 ppm [11]: ≥ 90%; pest or weed control at 10 ppm [11]: ≥ 90%; pest or weed control at 5 ppm [12]: ≥ 90%; pest or weed control at 10 ppm [12]: ≥ 90%; pest or weed control at 5 ppm (bacterial blight in rice): ≥ 90%; pest or weed control at 10 ppm (bacterial blight in rice): ≥ 90%; pest or weed control at 5 ppm [13]: ≥ 90%; pest or weed control at 10 ppm [13]: ≥ 90%; pest or weed control at 5 ppm [14]: ≥ 90%; pest or weed control at 10 ppm [14]: ≥ 90%
